Data published in patent publication US20250206732A1, “COMPOUNDS AND METHODS FOR THE TARGETED DEGRADATION OF KRAS” (Arvinas Operations, Inc., priority 2022, published 2025).

Molecular target: T1, AsPC-1 HiBiT-KRASG12D (Homo sapiens, UniProt P01116, G12D)
T1 construct: insert the HiBiT tag onto the N-terminus of one or more of the endogenous KRAS alleles; endogenous in cells; host or cells: AsPC-1 (ATCC CRL-1682), CRISPR-Cas9 knock-in clone, one tagged allele
Test: HiBiT degradation assay (G12D), AsPC-1 HiBiT-KRASG12D cells
Format: cell-based
Conditions: 24 hours treatment; for Dmax: ASPC1, AsPC-1 HiBiT-KRASG12D cells, maximum degradation observed; for DC50: AsPC-1 HiBiT-KRASG12D cells, HiBiT luminescence
Procedure, shortened: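 In this degradation format, an engineered AsPC-1 clone with HiBiT fused to the KRAS N-terminus is exposed to compounds for 24 hours, after which remaining tagged protein is quantified by lytic HiBiT luminescence.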

T1 sequence (P01116 1-188 isoform P01116-2 G12D): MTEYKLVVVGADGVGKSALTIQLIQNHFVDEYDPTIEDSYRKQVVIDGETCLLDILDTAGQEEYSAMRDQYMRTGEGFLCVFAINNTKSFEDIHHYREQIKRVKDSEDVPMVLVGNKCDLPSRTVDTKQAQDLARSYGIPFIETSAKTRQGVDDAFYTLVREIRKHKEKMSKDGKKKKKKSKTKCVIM

SMILES | Dmax | DC50
CCc1cccc2cc(O)cc(-c3ncc4c(N5CC6CCC(C5)N6)nc(OC5CCN(CC6CCN(c7cc([C@@H](C(=O)N8C[C@H](O)C[C@H]8C(=O)N[C@@H](C)c8ccc(-c9scnc9C)cc8)C(C)C)on7)CC6)CC5)nc4c3F)c12 [Compound 167, (2S,4R)-1-[(2S)-2-{3-[4-({4-[(4-{3,8-diazabicyclo[3.2.1]octan-3-yl}-7-(8-ethyl-3-hydroxynaphthalen-1-yl)-8-fluoropyrido[4,3-d]pyrimidin-2-yl)oxy]piperidin-1-yl}methyl)piperidin-1-yl]-1,2-oxazol-5-yl}-3-methylbutanoyl]-4-hydroxy-N-[(1S)-1-[4-(4-methyl-1,3-thiazol-5-yl)phenyl]ethyl]pyrrolidine-2-carboxamide] | 20 to 60% | 1 to 3 µM
CCc1cccc2cc(O)cc(-c3ncc4c(N5CC6CCC(C5)N6)nc(OCCN5CCC(CN6CC(Oc7cc([C@@H](C(=O)N8C[C@H](O)C[C@H]8C(=O)N[C@@H](C)c8ccc(-c9scnc9C)cc8)C(C)C)on7)C6)CC5)nc4c3F)c12 [Compound 245] | – | > 3 µM
CCc1cccc2cc(O)cc(-c3ncc4c(N5CC6CCC(C5)N6)nc(OC[C@]56CCCN5[C@H](COC(=O)N5CC7(C5)CN(c5cc([C@H](C(=O)N8C[C@H](O)C[C@H]8C(=O)N[C@@H](C)c8ccc(-c9scnc9C)cc8)C(C)C)on5)C7)CC6)nc4c3F)c12 [Compound 340, [(3S,8R)-8-[[4-(3,8-diazabicyclo[3.2.1]octan-3-yl)-7-(8-ethyl-3-hydroxy-1-naphthyl)-8-fluoro-pyrido[4,3-d]pyrimidin-2-yl]oxymethyl]-1,2,3,5,6,7-hexahydropyrrolizin-3-yl]methyl 6-[5-[(1S)-1-[(2S,4R)-4-hydroxy-2-[[(1S)-1-[4-(4-methylthiazol-5-yl)phenyl]ethyl]carbamoyl]pyrrolidine-1-carbonyl]-isobutyl]isoxazol-3-yl]-2,6-diazaspiro[3.3]heptane-2-carboxylate] | 80 to 100% | < 0.6 µM
CCc1cccc2cc(O)cc(-c3ncc4c(N5CC6CCC(C5)N6)nc(OC[C@@H]5CC[C@@H](COC(=O)N6CCN(c7cc([C@@H](C(=O)N8C[C@H](O)C[C@H]8C(=O)N[C@@H](C)c8ccc(-c9scnc9C)cc8)C(C)C)on7)CC6)N5C)nc4c3F)c12 [Compound 289, [(2S,5S)-5-[[4-(3,8-diazabicyclo[3.2.1]octan-3-yl)-7-(8-ethyl-3-hydroxy-1-naphthyl)-8-fluoro-pyrido[4,3-d]pyrimidin-2-yl]oxymethyl]-1-methyl-pyrrolidin-2-yl]methyl 4-[5-[(1S)-1-[(2S,4R)-4-hydroxy-2-[[(1S)-1-[4-(4-methylthiazol-5-yl)phenyl]ethyl]carbamoyl]pyrrolidine-1-carbonyl]-2-methyl-propyl]isoxazol-3-yl]piperazine-1-carboxylate] | 20 to 60% | 1 to 3 µM
CCc1cccc2cc(O)cc(-c3ncc4c(N5CC6CCC(C5)N6)nc(OCCN5CCC(OC6CN(c7cc([C@@H](C(=O)N8C[C@H](O)C[C@H]8C(=O)N[C@@H](C)c8ccc(-c9scnc9C)cc8)C(C)C)on7)C6)CC5)nc4c3F)c12 [Compound 216, (2S,4R)-1-[(2S)-2-(3-{3-[(1-{2-[(4-{3,8-diazabicyclo[3.2.1]octan-3-yl}-7-(8-ethyl-3-hydroxynaphthalen-1-yl)-8-fluoropyrido[4,3-d]pyrimidin-2-yl)oxy]ethyl}piperidin-4-yl)oxy]azetidin-1-yl}-1,2-oxazol-5-yl)-3-methylbutanoyl]-4-hydroxy-N-[(1S)-1-[4-(4-methyl-1,3-thiazol-5-yl)phenyl]ethyl]pyrrolidine-2-carboxamide] | 20 to 60% | 1 to 3 µM
Cc1ncsc1-c1ccc([C@H](C)NC(=O)[C@@H]2C[C@@H](O)CN2C(=O)[C@H](c2cc(OC3CN(C(=O)OC[C@@H]4CC[C@@]5(COc6nc(N7CC8CCC(C7)N8)c7cnc(-c8cc(O)cc(Cl)c8C8CC8)c(F)c7n6)CCCN45)C3)no2)C(C)C)cc1 [Compound 322] | 60 to 80% | 0.6 to 1 µM
CCc1cccc2cc(O)cc(-c3ncc4c(N5CCCCCC5)nc(OC[C@@]56CCCN5[C@H](COc5cc([C@@H](C(=O)N7C[C@H](O)C[C@H]7C(=O)N[C@@H](C)c7ccc(-c8scnc8C)cc7)C(C)C)on5)CC6)nc4c3F)c12 (single isomer, unassigned) [Compound 339] | – | > 3 µM
CCc1cccc2cc(O)cc(-c3ncc4c(N5CC6CCC(C5)N6)nc(OC[C@]56CCCN5[C@H](COC(=O)N5CC(COc7cc([C@H](C(=O)N8C[C@H](O)C[C@H]8C(=O)N[C@@H](C)c8ccc(-c9scnc9C)cc8)C(C)C)on7)C5)CC6)nc4c3F)c12 [Compound 121, [(3S,7aR)-7a-{[(4-{3,8-diazabicyclo[3.2.1]octan-3-yl}-7-(8-ethyl-3-hydroxynaphthalen-1-yl)-8-fluoropyrido[4,3-d]pyrimidin-2-yl)oxy]methyl}-hexahydro-1H-pyrrolizin-3-yl]methyl 3-[({5-[(2R)-1-[(2S,4R)-4-hydroxy-2-{[(1S)-1-[4-(4-methyl-1,3-thiazol-5-yl)phenyl]ethyl]carbamoyl}pyrrolidin-1-yl]-3-methyl-1-oxobutan-2-yl]-1,2-oxazol-3-yl}oxy)methyl]azetidine-1-carboxylate] | 80 to 100% | < 0.6 µM
C#Cc1c(F)ccc2cccc(-c3ncc4c(N5CC6CCC(C5)N6)nc(OC[C@]56CCCN5[C@H](COc5cc([C@@H](C(=O)N7C[C@H](O)C[C@H]7C(=O)N[C@@H](C)c7ccc(-c8scnc8C)cc7)C(C)C)on5)CC6)nc4c3F)c12 [Compound 317, (2S,4R)-1-[(2R)-2-[3-[[(3S,8R)-8-[[4-(3,8-diazabicyclo[3.2.1]octan-3-yl)-7-(8-ethynyl-7-fluoro-1-naphthyl)-8-fluoro-pyrido[4,3-d]pyrimidin-2-yl]oxymethyl]-1,2,3,5,6,7-hexahydropyrrolizin-3-yl]methoxy]isoxazol-5-yl]-3-methyl-butanoyl]-4-hydroxy-N-[(1S)-1-[4-(4-methylthiazol-5-yl)phenyl]ethyl]pyrrolidine-2-carboxamide] | 80 to 100% | < 0.6 µM
CCc1cccc2cc(O)cc(-c3ncc4c(N5C[C@H]6CC[C@@H](C5)N6)nc(OCCN5CCC(C)(CN6CCN(c7cc([C@H](C(=O)N8C[C@H](O)C[C@H]8C(=O)N[C@@H](C)c8ccc(-c9scnc9C)cc8)C(C)C)on7)CC6)CC5)nc4c3F)c12 [Compound 187, (2S,4R)-1-((R)-2-(3-(4-((1-(2-((4-((1R,5S)-3,8-diazabicyclo[3.2.1]octan-3-yl)-7-(8-ethyl-3-hydroxynaphthalen-1-yl)-8-fluoropyrido[4,3-d]pyrimidin-2-yl)oxy)ethyl)-4-methylpiperidin-4-yl)methyl)piperazin-1-yl)isoxazol-5-yl)-3-methylbutanoyl)-4-hydroxy-N—((S)-1-(4-(4-methylthiazol-5-yl)phenyl)ethyl)pyrrolidine-2-carboxamide] | 80 to 100% | < 0.6 µM
CCc1cccc2cc(O)cc(-c3ncc4c(N5CC6CCC(C5)N6)nc(OC[C@@]56CCCN5[C@H](COC(=O)N5CCC(Oc7cc([C@@H](C(=O)N8C[C@H](O)C[C@H]8C(=O)N[C@@H](C)c8ccc(-c9scnc9C)cc8)C(C)C)on7)CC5)CC6)nc4c3F)c12 [Compound 118, [(3S,7aS)-7a-{[(4-{3,8-diazabicyclo[3.2.1]octan-3-yl}-7-(8-ethyl-3-hydroxynaphthalen-1-yl)-8-fluoropyrido[4,3-d]pyrimidin-2-yl)oxy]methyl}-hexahydro-1H-pyrrolizin-3-yl]methyl 4-({5-[(2S)-1-[(2S,4R)-4-hydroxy-2-{[(1S)-1-[4-(4-methyl-1,3-thiazol-5-yl)phenyl]ethyl]carbamoyl}pyrrolidin-1-yl]-3-methyl-1-oxobutan-2-yl]-1,2-oxazol-3-yl}oxy)piperidine-1-carboxylate] | 20 to 60% | 0.6 to 1 µM
CCc1cccc2cccc(-c3ncc4c(N5CC6CCC(C5)N6)nc(OC[C@]56CCCN5[C@H](COC(=O)N5CCN(c7cc([C@H](C(=O)N8C[C@H](O)C[C@H]8C(=O)N[C@@H](C)c8ccc(-c9scnc9C)cc8)C(C)C)on7)CC5)CC6)nc4c3F)c12 [Compound 57] | 60 to 80% | < 0.6 µM
CCc1cccc2cc(O)cc(-c3ncc4c(N5CC6CCC(C5)N6)nc(OC[C@@H]5CC[C@@H](COC(=O)N6CCN(c7cc([C@H](C(=O)N8C[C@H](O)C[C@H]8C(=O)N[C@@H](C)c8ccc(-c9scnc9C)cc8)C(C)C)on7)[C@H](C)C6)N5C)nc4c3F)c12 [Compound 301, [(2S,5S)-5-[[4-(3,8-diazabicyclo[3.2.1]octan-3-yl)-7-(8-ethyl-3-hydroxy-1-naphthyl)-8-fluoro-pyrido[4,3-d]pyrimidin-2-yl]oxymethyl]-1-methyl-pyrrolidin-2-yl]methyl (3R)-4-[5-[(1R)-1-[(2S,4R)-4-hydroxy-2-[[(1S)-1-[4-(4-methylthiazol-5-yl)phenyl]ethyl]carbamoyl]pyrrolidine-1-carbonyl]-2-methyl-propyl]isoxazol-3-yl]-3-methyl-piperazine-1-carboxylate] | 80 to 100% | < 0.6 µM
CCc1cccc2cc(O)cc(-c3ncc4c(N5CC6CCC(C5)N6)nc(OCCN5CCC(CN6CCN(c7cc([C@@H](C(=O)N8C[C@H](O)C[C@H]8C(=O)N[C@@H](C)c8ccc(-c9ccnn9C)cc8)C(C)C)on7)CC6)CC5)nc4c3F)c12 [Compound 201, (2S,4R)-1-[(2S)-2-(3-{4-[(1-{2-[(4-{3,8-diazabicyclo[3.2.1]octan-3-yl}-7-(8-ethyl-3-hydroxynaphthalen-1-yl)-8-fluoropyrido[4,3-d]pyrimidin-2-yl)oxy]ethyl}piperidin-4-yl)methyl]piperazin-1-yl}-1,2-oxazol-5-yl)-3-methylbutanoyl]-4-hydroxy-N-[(1S)-1-[4-(1-methyl-1H-pyrazol-5-yl)phenyl]ethyl]pyrrolidine-2-carboxamide] | – | > 3 µM
